Source: ChEMBL document CHEMBL1134456, “Design, synthesis and pharmacological characterization of a potent radioiodinated and photoactivatable peptidic oxytocin antagonist” (J Med Chem, 2001)
Starred links: 1 amine or outer side, 2 acyl side, 3 side chain; linkers in the order of their positions; H or OH if unused. Positions of bridges follow the written chain, without caps; N, C: chain ends. Non-standard residues stand in square brackets, D forms with d. Residues, ends and D or L forms follow the SMILES beside them. X1 = [N-]=[N+]=Nc1ccc(C[C@H](N[*:1])C(=O)[*:2])cc1I; X2 = O=C(CC1(S[*:2])CCCCC1)[*:1]; Orn = NCCC[C@H](N)C(=O)O

How the values were obtained:
Oxytocin receptor [1] = target: T1, Oxytocin receptor (Homo sapiens, UniProt P30559); experiment: Ability to inhibit OT-induced inositol phosphate accumulation was determined in CHO cells expressing the human OT receptor; assay type: functional, cell-based
T1 sequence (P30559 whole entry): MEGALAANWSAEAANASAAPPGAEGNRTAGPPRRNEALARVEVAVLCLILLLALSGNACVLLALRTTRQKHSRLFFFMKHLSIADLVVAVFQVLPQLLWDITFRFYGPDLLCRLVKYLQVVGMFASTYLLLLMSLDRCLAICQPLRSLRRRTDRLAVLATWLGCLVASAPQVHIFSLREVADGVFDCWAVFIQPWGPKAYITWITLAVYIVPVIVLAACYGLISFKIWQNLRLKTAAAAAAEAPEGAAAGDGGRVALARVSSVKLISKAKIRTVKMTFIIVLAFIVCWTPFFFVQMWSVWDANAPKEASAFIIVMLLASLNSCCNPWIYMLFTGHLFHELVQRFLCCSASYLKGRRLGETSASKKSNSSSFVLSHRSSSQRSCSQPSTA

Oxytocin receptor [2] = target: T1, Oxytocin receptor; experiment: Binding affinity towards OT receptor in CHO cells expressing the human OT receptor; assay type: cell-based
Oxytocin receptor [3] = target: T1, Oxytocin receptor; experiment: Dissociation constant value for human OT-receptor

| Structure (SMILES) | IC50 (Oxytocin receptor [1]) [pM] | Ki (Oxytocin receptor [2]; cho) [pM] | Kd (Oxytocin receptor [3]) [pM] | Ki (Oxytocin receptor [2]) [pM] |
| --- | --- | --- | --- | --- |
| CC[C@H](C)[C@@H]1NC(=O)[C@H](Cc2ccc(OC)cc2)NC(=O)CC2(CCCCC2)SSC[C@@H](C(=O)N2CCC[C@H]2C(=O)N[C@@H](CCCN)C(=O)N[C@@H](Cc2ccc(N=[N+]=[N-])c(I)c2)C(N)=O)NC(=O)[C@H](CC(N)=O)NC(=O)[C@H]([C@@H](C)O)NC1=O (Y(Me)ITNCP[Orn][X1]-NH2; linker N-5 via X2) | 320 | 300 | 250 | – |
| CC[C@H](C)[C@@H]1NC(=O)[C@H](Cc2ccc(OC)cc2)NC(=O)CC2(CCCCC2)SSC[C@@H](C(=O)NCC(=O)N[C@@H](CCCN)C(=O)N[C@@H](Cc2ccc(N=[N+]=[N-])c(I)c2)C(N)=O)NC(=O)[C@H](CC(N)=O)NC(=O)[C@H]([C@@H](C)O)NC1=O (Y(Me)ITNCG[Orn][X1]-NH2; linker N-5 via X2) | – | 2300 | – | – |
| CC[C@H](C)[C@@H]1NC(=O)[C@H](Cc2ccc(O)cc2)NC(=O)CC2(CCCCC2)SSC[C@@H](C(=O)NCC(=O)N[C@@H](CCCN)C(=O)N[C@@H](Cc2ccc(N=[N+]=[N-])c(I)c2)C(N)=O)NC(=O)[C@H](CC(N)=O)NC(=O)[C@H]([C@@H](C)O)NC1=O (YITNCG[Orn][X1]-NH2; linker N-5 via X2) | – | 18000 | – | – |
| CC[C@H](C)[C@@H]1NC(=O)[C@H](Cc2ccc(O)cc2)NC(=O)CC2(CCCCC2)SSC[C@@H](C(=O)N2CCC[C@H]2C(=O)N[C@@H](CCCN)C(=O)N[C@@H](Cc2ccc(N=[N+]=[N-])c(I)c2)C(N)=O)NC(=O)[C@H](CC(N)=O)NC(=O)[C@H]([C@@H](C)O)NC1=O (YITNCP[Orn][X1]-NH2; linker N-5 via X2) | – | – | – | 600 |
